Tests used:
Type in all cases: cell-based
RS4;11 cells = experiment: Cell proliferation assay, RS4;11 cells (MTS, 72 h); conditions: Homo sapiens, RS4;11 cell proliferation
Experimental: MTS testing kit was purchased from Promega. The RPMI-1640, Fetal bovine serum and Penicillin-Streptomycin were purchased from Gibco. Dimethyl sulfoxide (DMSO) was purchased from Sigma.
To investigate whether a compound is able to inhibit the activity of Bcl-2 in cells, a mechanism-based assay using RS4;11 (ATCC® CRL-1873™) cell was developed. In this assay, inhibition of Bcl-2 was detected by the inhibition of RS4;11 cells proliferation. RS4;11 cells were cultured in culture flasks to 40-80% confluence in RPMI-1640 plus 10% fetal bovine serum. Cells were collected and plated onto 96-well plates at desired cell density (30000 cells/well). Plates were incubated overnight at 37° C., with 5% CO2 to adhere. Compounds were added to the plates, and the final compound concentrations were 10000, 3333, 1111, […], 41, 14, 4.6 and 1.5 nM. Plates plated with RS4;11 cells were placed at 37° C., with 5% CO2 for 72 h. 20 μl MTS/100 μl medium mixture solution were added to each well and incubate the plates for exactly 2 hours. The reaction was stopped by adding 25 μl 10% SDS per well. Measure absorbance at 490 nm and 650 nm (reference wavelength). IC50 was calculated using GraphPad Prism 5.0.

DoHH2 cells = experiment: Cell proliferation assay, DoHH2 cells (MTS, 120 h); conditions: Homo sapiens, DOHH-2
Method in brief: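 DoHH2 cells in RPMI-1640 with 10% FBS were plated at 5000/well and rested 4 h. They were then exposed to compound at nine final concentrations (10000 to 1.5 nM) for 120 h at 37 °C. Viability was read by MTS (2 h, A490) and IC50 derived by curve fitting.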

Toledo cells = experiment: Cell proliferation assay, Toledo cells (MTS, 72 h); conditions: Homo sapiens, Toledo cells, MTS, read-out: Toledo IC50
Method in brief: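 Toledo cells (30000/well, RPMI-1640 with 10% FBS) were preincubated for 4 h. They were then exposed to nine compound concentrations from 10000 to 1.5 nM for 72 h at 37 °C, 5% CO2. MTS was added for 2 h and absorbance read at 490 nm to give IC50.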

**Q.** Which results are given for `CN1CCN(C2CC3(CCN(c4ccc(C(=O)NS(=O)(=O)c5cnc(NCC6CCOCC6)c([N+](=O)[O-])c5)c(Oc5cnc6[nH]ccc6c5)c4)CC3)C2)[C@H](c2ccccc2C2CC2)C1` (single isomer, unassigned) [Example A-39a, (R or S)-2-((1H-pyrrolo[2,3-b]pyridin-5-yl)oxy)-4-(2-(2-(2-cyclopropyl-phenyl)-4-methylpiperazin-1-yl)-7-azaspiro[3.5]nonan-7-yl)-N-((5-nitro-6-(((tetrahydro-2H-pyran-4-yl)methyl)amino)pyridin-3-yl)sulfonyl) benzamide]?
**A.** IC50 (RS4;11 cells): ≤ 1 nM; IC50 (DoHH2 cells): ≤ 1 nM; IC50 (Toledo cells): 1 nM

**Q.** `O=C(NS(=O)(=O)c1cnc(NCC2C3COCC23)c([N+](=O)[O-])c1)c1ccc(N2CCC3(CC2)CC(N2CCC[C@@H]2c2ccccc2C2CC2)C3)cc1Oc1cnc2[nH]ccc2c1` (stereo partly drawn) [Example A-30b, 2-((1H-pyrrolo[2,3-b]pyridin-5-yl)oxy)-N-((6-(((3-oxabicyclo[3.1.0]hexan-6-yl)methyl)amino)-5-nitro-pyridin-3-yl)sulfonyl)-4-(2-((R)-2-(2-cyclopropylphenyl)pyrrolidine-1-yl)-7-azaspiro[3.5]nonan-7-yl)benzamide] was tested. Which IC50 (RS4;11 cells) did it give?
**A.** Its IC50 is at most 1 nM.

**Q.** And the IC50 (DoHH2 cells)?
**A.** The IC50 was at most 1 nM.

**Q.** What about the IC50 (Toledo cells) of the same compound?
**A.** Its IC50 is 1 nM.

**Q.** With `CC(C)c1ccccc1[C@@H]1COCCN1C1CC2(CCN(c3ccc(C(=O)NS(=O)(=O)c4cnc(NC[C@H]5CC[C@@](C)(O)CC5)c([N+](=O)[O-])c4)c(Oc4cnc5[nH]ccc5c4)c3)CC2)C1` (single isomer, unassigned) [Example A-56a, 2-((1H-pyrrolo[2,3-b]pyridin-5-yl)oxy)-N-((6-((((1s,4s)-4-hydroxy-4-methylcyclohexyl)methyl)amino)-5-nitropyridin-3-yl)sulfonyl)-4-(2-((R or S)-3-(2-isopropylphenyl)morpho-lino)-7-azaspiro[3.5]nonan-7-yl) benzamide] as the compound, how does the IC50 (RS4;11 cells) read?
**A.** Its IC50 is at most 1 nM.

**Q.** What about the IC50 (DoHH2 cells) of the same compound?
**A.** The IC50 was at most 1 nM.

**Q.** What about the IC50 (Toledo cells) of the same compound?
**A.** The IC50 was 1 nM.

**Q.** What does the source list for `Cc1nc(NC[C@H]2CC[C@](C)(O)CC2)c([N+](=O)[O-])cc1S(=O)(=O)NC(=O)c1ccc(N2CCC3(CC2)CC(N2CCC[C@H]2c2ccccc2C(C)C)C3)cc1Oc1cnc2[nH]ccc2c1` (single isomer, unassigned) [Example A-121, 2-((1H-pyrrolo[2,3-b]pyridin-5-yl)oxy)-N-((6-((((1r,4r)-4-hydroxy-4-methylcyclohexyl)methyl)amino)-2-methyl-5-nitropyridin-3-yl)sulfonyl)-4-(2-((R or S)-2-(2-isopropylphenyl)pyrrolidin-1-yl)-7-azaspiro[3.5]nonan-7-yl) benzamide]?
**A.** IC50 (RS4;11 cells): ≤ 1 nM; IC50 (DoHH2 cells): ≤ 1 nM; IC50 (Toledo cells): 1 nM

**Q.** What does the source list for `O=C(NS(=O)(=O)c1cnc(NCC2C3COCC23)c([N+](=O)[O-])c1)c1ccc(N2CCC3(CC2)CC(N2CCC4C[C@]42c2ccccc2C2CC2)C3)cc1Oc1cnc2[nH]ccc2c1` (single isomer, unassigned) [Example A-97b, 2-((1H-pyrrolo[2,3-b]pyridin-5-yl)oxy)-N-((6-(((3-oxabicyclo[3.1.0]hexan-6-yl)methyl)amino)-5-nitro-pyridin-3-yl)sulfonyl)-4-(2-((1R or 1S)-1-(2-cyclopropylphenyl)-2-aza-bicyclo[3.1.0]hexan-2-yl)-7-azaspiro [3.5]nonan-7-yl)benzamide]?
**A.** IC50 (RS4;11 cells): ≤ 1 nM; IC50 (DoHH2 cells): ≤ 1 nM; IC50 (Toledo cells): 6 nM

**Q.** For `CC(C)c1ccccc1C1CCCN1C1CC2(CCN(c3ccc(C(=O)NS(=O)(=O)c4cc([N+](=O)[O-])c5c(n4)OC[C@H](C4CCOCC4)N5)c(Oc4cnc5[nH]ccc5c4)c3)CC2)C1` (single isomer, unassigned) [Example B-33, 2-((1H-pyrrolo[2,3-b]pyridin-5-yl)oxy)-4-(2-((R or S)-2-(2-isopropylphenyl)pyrrolidin-1-yl)-7-azaspiro[3.5]nonan-7-yl)-N-(((S)-8-nitro-2-(tetrahydro-2H-pyran-4-yl)-2,3-dihydro-1H-pyrido[2,3-b][1,4]oxazin-6-yl)sulfonyl)benzamide], which IC50 (RS4;11 cells) is on record?
**A.** Its IC50 is at most 1 nM.

**Q.** And the IC50 (DoHH2 cells)?
**A.** Its IC50 is at most 1 nM.

**Q.** `CC(C)c1ccccc1[C@@H]1COCCN1C1CC2(CCN(c3ccc(C(=O)NS(=O)(=O)c4cc([N+](=O)[O-])c5c(n4)OC[C@H]([C@H]4CC[C@](C)(O)CC4)N5)c(Oc4cnc5[nH]ccc5c4)c3)CC2)C1` (single isomer, unassigned) [Example B-47, 2-((1H-pyrrolo[2,3-b]pyridin-5-yl)oxy)-N-(((S)-2-((1r,4S)-4-hydroxy-4-methylcyclohexyl)-8-nitro-2,3-dihydro-1H-pyrido[2,3-b][1,4]oxazin-6-yl)sulfonyl)-4-(2-((R or S)-3-(2-isopropylphenyl)morpholino)-7-azaspiro[3.5]nonan-7-yl) benzamide] was tested. Which IC50 (RS4;11 cells) did it give?
**A.** The IC50 was at most 1 nM.

**Q.** What about the IC50 (DoHH2 cells) of the same compound?
**A.** Its IC50 is at most 1 nM.

**Q.** With `CC(C)c1ccccc1[C@H]1CCCN1C1CC2(CCN(c3ccc(C(=O)NS(=O)(=O)c4cc([N+](=O)[O-])c5c(n4)OC[C@H](Cc4ccccc4)N5)c(Oc4cnc5[nH]ccc5c4)c3)CC2)C1` [Example B-3b, 2-((1H-pyrrolo[2,3-b]pyridin-5-yl)oxy)-N-(((S)-2-benzyl-8-nitro-2,3-dihydro-1H-pyrido[2,3-b][1,4]oxazin-6-yl)sulfonyl)-4-(2-((R)-2-(2-isopropylphenyl)pyrrolidin-1-yl)-7-azaspiro[3.5]nonan-7-yl) benzamide] as the compound, how does the IC50 (RS4;11 cells) read?
**A.** The IC50 was at most 1 nM.

**Q.** And the IC50 (DoHH2 cells)?
**A.** The IC50 was at most 1 nM.

**Q.** With `CC(C)c1ccccc1[C@H]1CCCN1C1CC2(CCN(c3ccc(C(=O)NS(=O)(=O)c4cnc(NCC5CCC(N=S(C)(C)=O)CC5)c([N+](=O)[O-])c4)c(Oc4cnc5[nH]ccc5c4)c3)CC2)C1` (stereo partly drawn) [Example A-10b, (R)-2-((1H-pyrrolo[2,3-b]pyridin-5-yl)oxy)-N-((6-(((4-((dimethyl (oxo)-λ^6-sulfanylidene)amino)cyclo-hexyl)methyl)amino)-5-nitropyridin-3-yl)sulfonyl)-4-(2-(2-(2-isopropyl-phenyl)pyrrolidin-1-yl)-7-azaspiro [3.5]nonan-7-yl)benzamide] as the compound, how does the IC50 (RS4;11 cells) read?
**A.** The IC50 was at most 1 nM.

**Q.** What about the IC50 (DoHH2 cells) of the same compound?
**A.** The IC50 was at most 1 nM.

**Q.** With `CC(C)c1ccccc1[C@@H]1CCCN1C1CC2(CCN(c3ccc(C(=O)NS(=O)(=O)c4cc([N+](=O)[O-])c5c(n4)OC[C@H](Cc4ccccn4)N5)c(Oc4cnc5[nH]ccc5c4)c3)CC2)C1` (single isomer, unassigned) [Example B-38, 2-((1H-pyrrolo[2,3-b]pyridin-5-yl)oxy)-4-(2-((R or S)-2-(2-isopropylphenyl)pyrrolidin-1-yl)-7-azaspiro[3.5]nonan-7-yl)-N-(((S)-8-nitro-2-(pyridin-2-ylmethyl)-2,3-dihydro-1H-pyrido [2,3-b][1,4]oxazin-6-yl)sulfonyl) benzamide] as the compound, how does the IC50 (RS4;11 cells) read?
**A.** Its IC50 is at most 1 nM.

**Q.** And the IC50 (DoHH2 cells)?
**A.** The IC50 was at most 1 nM.

**Q.** With `CC(C)c1ccccc1[C@@H]1CCCN1C1CC2(CCN(c3ccc(C(=O)NS(=O)(=O)c4cc([N+](=O)[O-])c5c(n4)OC[C@H]([C@H]4CC[C@](C)(O)CC4)N5)c(Oc4cnc5[nH]ccc5c4)c3)CC2)C1` (single isomer, unassigned) [Example B-34, 2-((1H-pyrrolo[2,3-b]pyridin-5-yl)oxy)-N-(((S)-2-((1r,4S)-4-hydroxy-4-methylcyclohexyl)-8-nitro-2,3-dihydro-1H-pyrido[2,3-b] [1,4]oxazin-6-yl)sulfonyl)-4-(2-((R or S)-2-(2-isopropylphenyl)pyrrolidin-1-yl)-7-azaspiro[3.5]nonan-7-yl)benzamide] as the compound, how does the IC50 (RS4;11 cells) read?
**A.** Its IC50 is at most 1 nM.

**Q.** And the IC50 (DoHH2 cells)?
**A.** The IC50 was at most 1 nM.

**Q.** What does the source list for `O=C(NS(=O)(=O)c1cnc(NCC2(F)CCOCC2)c([N+](=O)[O-])c1)c1ccc(N2CCC3(CC2)CC(N2CCC[C@@H]2c2ccccc2C2CC2)C3)cc1Oc1cnc2[nH]ccc2c1` [Example A-32b, (R)-2-((1H-pyrrolo[2,3-b]pyridin-5-yl)oxy)-4-(2-(2-(2-cyclopropyl-phenyl)pyrrolidin-1-yl)-7-azaspiro [3.5]nonan-7-yl)-N-((6-(((4-fluoro-tetrahydro-2H-pyran-4-yl)methyl)amino)-5-nitropyridin-3-yl)sulfonyl)benzamide]?
**A.** IC50 (RS4;11 cells): ≤ 1 nM; IC50 (DoHH2 cells): ≤ 1 nM

**Q.** With `O=C(NS(=O)(=O)c1cnc(NCC2C3COCC23)c([N+](=O)[O-])c1)c1ccc(N2CCC3(CC2)CC(N2CCC4C[C@@]42c2ccccc2C2CC2)C3)cc1Oc1cnc2[nH]ccc2c1` (single isomer, unassigned) [Example A-97a, 2-((1H-pyrrolo[2,3-b]pyridin-5-yl)oxy)-N-((6-(((3-oxabicyclo[3.1.0]hexan-6-yl)methyl)amino)-5-nitro-pyridin-3-yl)sulfonyl)-4-(2-((1R or 1S)-1-(2-cyclopropylphenyl)-2-aza-bicyclo[3.1.0]hexan-2-yl)-7-azaspiro [3.5]nonan-7-yl)benzamide] as the compound, how does the IC50 (RS4;11 cells) read?
**A.** Its IC50 is at most 1 nM.

**Q.** What about the IC50 (DoHH2 cells) of the same compound?
**A.** The IC50 was at most 1 nM.
